Patent publication US12384743B2, “Compositions comprising (R)-2-amino-3-phenylpropyl carbamate and uses thereof” (priority 2016, dated 2025)
Where a name gives a salt, the structure may show the parent alone. Read-outs that look alike come from different tables or passages of the source.

Experiments:
[1] = assay type: physicochemical; details: for relative humidity at which conversion to Form B occurred: slurrying Form A only
Description: Slurry experiments were performed with various water activities starting with Form A only and also by conducting interconversion slurries or pre-saturating solutions with APC and then adding equal amounts of Form A and Form B. When slurrying Form A only, conversion to Form B at room temperature occurred at 67% RH, and 40% RH at 2-8° C. With the interconversion slurries, Form B was isolated from all experiments with relative humidities ranging from 50% to 70%.

[2] = Humidity stressing of Form A; assay type: physicochemical; details: approximately 75% humidity (RH)
[3] = Drying of Form B in scaled-up method (low vacuum); assay type: physicochemical; details: oven temperature 20-25° C., low vacuum (700-750 mbar)
Description: An additional scaled-up method for producing Form B was developed that reduced reaction time and volume and increased yield. Isolation of Form B from Form A was carried out in 5 volumes of solvent (acetonitrile:water (95%:5% v:v)) at about 20° C. for about 1-2 hours. The drying process was carried out at an oven temperature of 20-25° C. and low vacuum (700-750 mbar). Under these drying conditions Form B was stable and no detectable Form A was formed. This method was used on a 4.5 kg batch of APC and produced Form B with a yield of 93.7%.

[4] = Drying studies on Form B (temperature, vacuum, milling, desiccant, low RH stressing); assay type: physicochemical
Description: Drying studies were performed on Form B. The drying experiments were performed under various temperatures with and without vacuum. Additionally, milling, storage under desiccant, and low RH stressing were conducted.

[5] = Aqueous solubility of Form B in different pH buffers; assay type: physicochemical; details: thermodynamic from solid

SMILES	relative humidity at which conversion to Form B occurred ([1]; 2-8° C.) [% RH]	relative humidity at which conversion to Form B occurred ([1]; room temperature) [% RH]	solid form after humidity stressing [2]	relative stability of solid forms ([1]; interconversion slurry of Form A and Form B, approximately 50% RH or greater at room temperature)	stability of solid form on drying [3]	stability of solid form (overall result of the drying studies) ([4]; low RH or elevated temperature)	solid form after drying/stress ([4]; vacuum drying at 50° C. 1 day, heating at 80° C. 1 day, milling)	solid form after drying/stress ([4]; vacuum drying at ambient temperature 1 day, heating at 40° C. 1 day, storage under desiccant 1 day, stressing at 33% RH 2 weeks)	solubility ([5]; aqueous buffer, Buffer solution pH 4.5, pH (buffer) measured starting conditions 4.5, pH (buffered sample) 5.7, read-out: Solubility (mg/ml mean of triplicates)) [mg/mL]	solubility ([5]; aqueous buffer, Buffer solution pH 5.5, pH (buffer) measured starting conditions 5.5, pH (buffered sample) 6.0, read-out: Solubility (mg/ml mean of triplicates)) [mg/mL]	solubility ([5]; aqueous buffer, Buffer solution pH 7.4, pH (buffer) measured starting conditions 7.4, pH (buffered sample) 6.4, read-out: Solubility (mg/ml mean of triplicates)) [mg/mL]	solubility ([5]; aqueous buffers of different pH, aqueous buffer, different pH buffers, read-out: aqueous solubility) [mg/mL]	solubility ([5]; buffer solution, aqueous buffer, pH 1-6.5, read-out: solubility in buffer solution) [mg/mL]	solubility ([5]; simulated gastric fluid, Buffer solution pH 1.2, pH (buffer) measured starting conditions 1.2, pH (buffered sample) 4.5, read-out: Solubility (mg/ml mean of triplicates)) [mg/mL]
NC(=O)OC[C@H](N)Cc1ccccc1 [Form A, (R)-2-amino-3-phenylpropyl carbamate hydrochloride]	40	67	Partial conversion to Form B	–	–	–	–	–	–	–	–	–	–	–
NC(=O)OC[C@H](N)Cc1ccccc1 [Form B, (R)-2-amino-3-phenylpropyl carbamate hydrochloride]	–	–	–	more stable form	stable	not stable	Full dehydration to Form A	Partial conversion to Form A	733	742	746	> 700	700 to 750	732
